pIC50: −log10 of the molar value.

Here are results for four compounds from ChEMBL document CHEMBL1781945, “A new series of 3-phenylcoumarins as potent and selective MAO-B inhibitors” (Bioorg Med Chem Lett, 2009).

Data set [1] deals with T1, Amine oxidase [flavin-containing] B (Homo sapiens, UniProt P27338).
T1 sequence (P27338 whole entry): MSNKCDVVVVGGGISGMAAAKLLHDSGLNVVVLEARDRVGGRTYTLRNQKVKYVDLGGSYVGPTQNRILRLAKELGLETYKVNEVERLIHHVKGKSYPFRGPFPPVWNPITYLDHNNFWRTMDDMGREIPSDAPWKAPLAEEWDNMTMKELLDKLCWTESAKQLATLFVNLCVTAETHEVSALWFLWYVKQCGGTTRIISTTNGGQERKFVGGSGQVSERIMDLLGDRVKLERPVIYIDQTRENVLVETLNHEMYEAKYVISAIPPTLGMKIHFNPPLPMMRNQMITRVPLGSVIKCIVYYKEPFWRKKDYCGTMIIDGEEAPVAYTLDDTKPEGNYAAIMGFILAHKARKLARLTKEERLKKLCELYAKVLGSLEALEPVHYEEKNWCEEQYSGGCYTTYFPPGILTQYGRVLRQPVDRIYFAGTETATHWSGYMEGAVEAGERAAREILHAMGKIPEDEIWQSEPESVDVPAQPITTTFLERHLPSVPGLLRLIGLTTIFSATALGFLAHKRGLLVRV
Briefly: Inhibition of human recombinant MAOB expressed in BTI insect cells using p-tyramine substrate by fluorometric method.

The target of data set [2] is T2, Amine oxidase [flavin-containing] A (Homo sapiens, UniProt P21397).
T2 sequence (P21397 whole entry): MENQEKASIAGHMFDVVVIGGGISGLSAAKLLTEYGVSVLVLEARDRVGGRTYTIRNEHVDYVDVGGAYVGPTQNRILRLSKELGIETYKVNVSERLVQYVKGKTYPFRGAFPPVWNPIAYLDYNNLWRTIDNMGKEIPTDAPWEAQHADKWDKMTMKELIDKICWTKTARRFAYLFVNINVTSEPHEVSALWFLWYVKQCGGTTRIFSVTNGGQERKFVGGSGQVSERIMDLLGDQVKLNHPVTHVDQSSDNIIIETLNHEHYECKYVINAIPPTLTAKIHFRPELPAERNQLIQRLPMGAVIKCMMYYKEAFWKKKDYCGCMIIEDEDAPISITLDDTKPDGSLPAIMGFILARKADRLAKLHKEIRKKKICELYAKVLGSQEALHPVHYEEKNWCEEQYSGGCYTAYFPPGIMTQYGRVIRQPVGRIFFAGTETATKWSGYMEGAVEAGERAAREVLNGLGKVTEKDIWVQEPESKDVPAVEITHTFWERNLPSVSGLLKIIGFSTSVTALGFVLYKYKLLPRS
Nature of the data set: Inhibition of human recombinant MAOA expressed in BTI insect cells at 100 uM using p-tyramine substrate by fluorometric method.

The species named for data set [3] is Homo sapiens. Briefly: Selectivity index, ratio of IC50 for human recombinant MAOA to IC50 for human recombinant MAOB.

Turning to `COc1cc(-c2cc3cc(C)ccc3oc2=O)cc(OC)c1OC`, in data set [1], the pIC50 is 6.79. Besides, in data set [2], the “inhibition (INH)” value is listed as “Not Active”. Moreover, the Ratio IC50 in data set [3] is greater than 623.

Take `Cc1ccc2oc(=O)c(-c3ccccc3)cc2c1`: the pIC50 in data set [1] is 6.55. For the same compound, the “inhibition (INH)” value in data set [2] is listed as “Not Active”. In addition, in data set [3], the Ratio IC50 is greater than 352.

In the case of `COc1ccc(-c2cc3cc(C)ccc3oc2=O)cc1`, the pIC50 in data set [1] was 7.88. The “inhibition (INH)” value in data set [2] is “Not Active”. Moreover, the Ratio IC50 in data set [3] is greater than 7660.

With `COc1cc(OC)cc(-c2cc3cc(C)ccc3oc2=O)c1`, the pIC50 in data set [1] is 8.05. For the same compound, the “inhibition (INH)” value in data set [2] is reported as “Not Active”. Besides, the Ratio IC50 in data set [3] is greater than 11100.
